{"source": "patent US20140271470A1", "about": "“TARGETED THERANOSTICS FOR METASTATIC PROSTATE CANCER” (priority 2013, published 2014)", "key": {"[1]": {"system": "human C4-2 prostate cancer xenografts", "assay": "Tumor volume growth of C4-2 xenografts treated with SIPP preparations", "type": "in vivo, nude mice", "settings": "tumor volume growth curves", "description": "Tumor volume growth curves for nude mice bearing human C4-2 prostate cancer xenografts treated with various preparations of SIPPs. (A) Black squares, no treatment controls."}, "[2]": {"system": "PC-3M orthotopic human tumor xenografts", "settings": "combined with radiation; cited from earlier work"}, "[3]": {"target": "T1, neurotensin receptor 1 (NTR1) (Homo sapiens, UniProt P30989)", "T1 construct": "NTR1, which is highly expressed in prostate cancer cells but not in normal prostate epithelial cells; endogenous in cells; PC-3M for the xenograft", "T1 sequence (P30989 whole entry)": "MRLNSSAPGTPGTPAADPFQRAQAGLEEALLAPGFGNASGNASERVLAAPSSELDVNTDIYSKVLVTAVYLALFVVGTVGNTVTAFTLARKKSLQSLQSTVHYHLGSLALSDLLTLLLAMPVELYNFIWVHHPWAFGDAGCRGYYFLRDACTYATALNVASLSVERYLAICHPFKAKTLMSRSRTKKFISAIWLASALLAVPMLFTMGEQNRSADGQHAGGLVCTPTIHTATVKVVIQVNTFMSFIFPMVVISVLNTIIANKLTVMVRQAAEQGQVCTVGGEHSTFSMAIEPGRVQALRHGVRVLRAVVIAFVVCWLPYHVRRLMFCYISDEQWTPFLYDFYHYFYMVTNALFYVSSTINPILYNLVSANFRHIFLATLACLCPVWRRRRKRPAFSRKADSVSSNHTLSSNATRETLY", "settings": "combined with radiation; cited from earlier work"}, "NF-κB": {"system": "NF-κB", "settings": "cited from earlier work"}}, "data": [{"smiles": "CC(=O)O[C@H]1C(=O)[C@@]2(C)[C@H]([C@H](OC(=O)c3ccccc3)[C@]3(O)C[C@H](OC(=O)[C@H](O)[C@@H](NC(=O)c4ccccc4)c4ccccc4)C(C)=C1C3(C)C)[C@]1(OC(C)=O)CO[C@@H]1C[C@@H]2O", "note": "[Paclitaxel, paclitaxel]", "values": [{"measurement": "effect on tumor growth", "setting": "[1]", "value": "effective"}]}, {"smiles": "COc1cccc(OC)c1-c1cc(C(=O)NC2(C(=O)O)C3CC4CC(C3)CC2C4)nn1-c1ccnc2cc(Cl)ccc12", "note": "(centres unmarked) [SR48692]", "values": [{"measurement": "radiosensitization of xenografts", "setting": "[2]", "value": "efficiently radiosensitizedn"}, {"measurement": "tumor burden", "setting": "[2]", "value": "significantly reduced tumor burden"}, {"measurement": "apoptotic cell death", "setting": "[3]", "value": "increasing apoptotic cell death"}, {"measurement": "clonogenic survival", "setting": "[3]", "value": "decreasing clonogenic survival"}, {"measurement": "radiosensitization of prostate cancer cells", "setting": "[3]", "value": "sensitized prostate cancer cells in a dose- and time-dependent manner"}]}, {"smiles": "C[C@H]1O[C@@H](O[C@H]2[C@@H](O)C[C@H](O[C@H]3[C@@H](O)C[C@H](O[C@H]4CC[C@@]5(C)[C@H](CC[C@@H]6[C@@H]5CC[C@]5(C)[C@@H](C7=CC(=O)OC7)CC[C@]65O)C4)O[C@@H]3C)O[C@@H]2C)C[C@H](O)[C@@H]1O", "note": "[digitoxin]", "values": [{"measurement": "NF-κB inhibition", "setting": "NF-κB", "value": "potent inhibitors of NF-κB"}]}, {"smiles": "C[C@H]1O[C@@H](O[C@H]2[C@@H](O)C[C@H](O[C@H]3[C@@H](O)C[C@H](O[C@H]4CC[C@@]5(C)[C@H](CC[C@@H]6[C@@H]5C[C@@H](O)[C@]5(C)[C@@H](C7=CC(=O)OC7)CC[C@]65O)C4)O[C@@H]3C)O[C@@H]2C)C[C@H](O)[C@@H]1O", "note": "[digoxin]", "values": [{"measurement": "NF-κB inhibition", "setting": "NF-κB", "value": "potent inhibitors of NF-κB"}]}]}
